Assay results reported in ChEMBL document CHEMBL5055644, “Cysteine derivatives as acetyl lysine mimics to inhibit zinc-dependent histone deacetylases for treating cancer” (Eur J Med Chem, 2021).

Molecular target: Histone deacetylase (Homo sapiens) (UniProt Q13547+O15379+Q9UBN7+Q92769+Q9UQL6+Q8WUI4+Q9BY41+Q96DB2+P56524+Q9UKV0+Q969S8)
Test: Inhibition of HDAC in human HeLa nuclear extract at 1 uM using Boc-Lys(acetyl)-AMC as fluorogenic substrate measured after 1 hr by flourescence plate reader method relative to control
Assay type: subcellular
Conditions: Nucleus

inhibition: 82%
SMILES: O=C(CCCSC[C@H](NS(=O)(=O)c1cccc(F)c1)C(=O)N[C@@H](Cc1c[nH]c2ccccc12)C(=O)NC1CCC1)NO
